≈ marks a conversion by molar mass, not a printed value. Calls of active or inactive are those of the source. The calls are words filed in the database; no cut-off is given here.
Experiments:
Escherichia coli [1] = assay: Antibacterial activity against wild-type Escherichia coli ATCC 25922 assessed as inhibition of bacterial growth incubated for 18 hrs; assay type: functional; settings: read-out: MIC100
[2] = Cytotoxicity against human HepG2 cells incubated for 40 hrs by celltiter-glo luminescent cell viability assay; assay type: toxicity, cell-based
Escherichia coli [3] = assay: Antibacterial activity against wild-type Escherichia coli ATCC 25922 assessed as inhibition of bacterial growth incubated for 18 hrs in presence of 50% heat inactivated human serum; assay type: functional; settings: read-out: MIC100
Klebsiella pneumoniae [4] = assay: Antibacterial activity against wild-type Klebsiella pneumoniae ATCC 13883 assessed as inhibition of bacterial growth incubated for 18 hrs in presence of 50% heat inactivated human serum; assay type: functional; settings: read-out: MIC100
[5] = Lipophilicity, logD of compound at pH 7.4; assay type: physicochemical; settings: buffer
[6] = Aqueous solubility of compound at pH 7.4; assay type: physicochemical
[7] = Chemical stability of compound at pH 2; assay type: physicochemical; settings: buffer
[8] = Chemical stability of compound in benzylamine; assay type: physicochemical
[9] = Genotoxicity in human TK6 cells measured after 3 to 24 hrs; assay type: toxicity, cell-based; settings: time 3-24 hrs
Cytochrome P450 1A2 [10] = target: T1, Cytochrome P450 1A2 (Homo sapiens, UniProt P05177); assay: Induction of CYP1A2 (unknown origin); assay type: ADME
T1 sequence (P05177 whole entry): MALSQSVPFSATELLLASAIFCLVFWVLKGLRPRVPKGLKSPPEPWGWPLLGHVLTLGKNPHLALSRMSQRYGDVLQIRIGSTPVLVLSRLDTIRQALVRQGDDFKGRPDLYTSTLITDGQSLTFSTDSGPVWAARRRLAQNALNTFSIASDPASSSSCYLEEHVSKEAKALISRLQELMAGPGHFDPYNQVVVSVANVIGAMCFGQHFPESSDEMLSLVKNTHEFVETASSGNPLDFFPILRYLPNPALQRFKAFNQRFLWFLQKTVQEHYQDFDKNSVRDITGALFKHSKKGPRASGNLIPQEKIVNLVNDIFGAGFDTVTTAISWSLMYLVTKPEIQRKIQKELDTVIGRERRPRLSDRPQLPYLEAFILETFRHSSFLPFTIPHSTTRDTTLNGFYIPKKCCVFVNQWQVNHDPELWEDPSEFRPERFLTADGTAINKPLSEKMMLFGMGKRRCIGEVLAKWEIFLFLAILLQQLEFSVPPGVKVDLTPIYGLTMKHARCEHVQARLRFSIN

Cytochrome P450 1A2 [11] = target: T1, Cytochrome P450 1A2; assay: Inhibition of CYP1A2 (unknown origin); assay type: ADME
[12] = Clearance in mouse microsomes; assay type: ADME, Microsome
[13] = Cmax in Swiss mouse plasma at 10 mg/kg, iv administered as single bolus dose and measured upto 24 hrs by LC-MS/MS analysis; assay type: ADME, organism-based
[14] = Cmax in Swiss mouse kidney at 10 mg/kg, iv administered as single bolus dose and measured upto 24 hrs by LC-MS/MS analysis; assay type: ADME, organism-based
[15] = Cmax in Swiss mouse liver at 10 mg/kg, iv administered as single bolus dose and measured upto 24 hrs by LC-MS/MS analysis; assay type: ADME, organism-based
[16] = Observed clearance in Swiss mouse at 10 mg/kg, iv administered as single bolus dose and measured upto 24 hrs by LC-MS/MS analysis; assay type: ADME, organism-based; settings: in vivo
[17] = Volume of distribution at steady state in Swiss mouse at 10 mg/kg, iv administered as single bolus dose and measured upto 24 hrs by LC-MS/MS analysis; assay type: ADME, organism-based; settings: in vivo, read-out: Vdss
Klebsiella aerogenes = assay: Antibacterial activity against Enterobacter aerogenes ATCC 13048 assessed as inhibition of bacterial growth incubated for 18 hrs; assay type: functional; settings: read-out: MIC100
Enterobacter cloacae = assay: Antibacterial activity against Enterobacter cloacae ATCC 23355 assessed as inhibition of bacterial growth incubated for 18 hrs; assay type: functional; settings: read-out: MIC100
Escherichia coli [18] = assay: Antibacterial activity against colistin resistant Escherichia coli NCTC 13846 harboring mcr-1 gene assessed as inhibition of bacterial growth incubated for 18 hrs; assay type: functional; settings: read-out: MIC100
Morganella morganii = assay: Antibacterial activity against Morganella morganii ATCC 25830 assessed as inhibition of bacterial growth incubated for 18 hrs; assay type: functional; settings: read-out: MIC100
Proteus mirabilis [19] = assay: Antibacterial activity against Proteus mirabilis ATCC 25933 assessed as inhibition of bacterial growth incubated for 18 hrs; assay type: functional; settings: read-out: MIC100
Proteus mirabilis [20] = assay: Antibacterial activity against Proteus mirabilis ATCC 7002 assessed as inhibition of bacterial growth incubated for 18 hrs; assay type: functional; settings: read-out: MIC100
Providencia stuartii = assay: Antibacterial activity against Providencia stuartii ATCC 25826 assessed as inhibition of bacterial growth incubated for 18 hrs; assay type: functional; settings: read-out: MIC100
Pseudomonas aeruginosa = assay: Antibacterial activity against efflux-deficient Pseudomonas aeruginosa PAO750 assessed as inhibition of bacterial growth incubated for 18 hrs; assay type: functional; settings: read-out: MIC100
Klebsiella pneumoniae [21] = assay: Antibacterial activity against Klebsiella pneumoniae panel (100 strains) assessed as inhibition of bacterial growth; assay type: functional
Escherichia coli [22] = assay: Antibacterial activity against Escherichia coli ATCC 25922 assessed as inhibition of bacterial growth incubated for 18 hrs in presence of 5 mM KCl; assay type: functional, organism-based
Escherichia coli [23] = assay: Antibacterial activity against Escherichia coli ATCC 25922 assessed as inhibition of bacterial growth incubated for 18 hrs in presence of 25 mM bicarbonate; assay type: functional, organism-based
Klebsiella pneumoniae [24] = assay: Antibacterial activity against Klebsiella pneumoniae ATCC 13883 assessed as inhibition of bacterial growth incubated for 18 hrs in presence of 150 mM NaCl; assay type: functional, organism-based
Klebsiella pneumoniae [25] = assay: Antibacterial activity against Klebsiella pneumoniae ATCC 13883 assessed as inhibition of bacterial growth incubated for 18 hrs in presence of 25 mM bicarbonate; assay type: functional, organism-based
[26] = Binding affinity to gram negative bacterial lipid II assessed as dissociation constant by ITC analysis; set-up: species or system Bacteria
Klebsiella pneumoniae [27] = assay: Bactericidal activity against Klebsiella pneumoniae ATCC 13883 at 0 to 8 times MIC measured for 24 hrs by time-kill assay; assay type: functional, organism-based
Cell membrane [28] = assay: Induction of membrane permeabilization in Escherichia coli ATCC 25922 at 32 to 64 ug/ml measured after 30 mins to 2 hrs by Sytox Green labelling based microscopic analysis; assay type: cell membranes; settings: dose 32-64 µg/ml, time 0.5-2 hrs
Cell membrane [29] = assay: Induction of membrane permeabilization in Klebsiella pneumoniae ATCC 13883 at 32 to 64 ug/ml measured after 30 mins by Sytox Green labelling based microscopic analysis; assay type: cell membranes; settings: dose 32-64 µg/ml
[30] = Toxicity in naive mouse assessed as animal death at >15 mg/kg, iv administered as single dose every 4 hrs for 24 hrs; assay type: organism-based; settings: in vivo
Klebsiella pneumoniae [31] = assay: Antibacterial activity against Klebsiella pneumoniae ATCC 43816 infected in cyclophosphamide immunosuppressed Swiss albino mouse respiratory infection model at 30 to 90 mg/kg, iv administered every 2 hrs starting from 1 hr post infection and measured 5 hrs post infection; assay type: functional, organism-based; settings: dose 30-90 mg/kg, time 4.0 hrs
Klebsiella pneumoniae [32] = assay: Antibacterial activity against Klebsiella pneumoniae ATCC 43816 infected in mouse urinary tract infection model assessed as reduction in bacterial burden in bladder at <10 mg/kg, iv administered every 4 hrs and measured after 26 hrs; assay type: functional, organism-based
Klebsiella pneumoniae [33] = assay: Antibacterial activity against Klebsiella pneumoniae ATCC 43816 infected in mouse urinary tract infection model assessed as reduction in bacterial burden in urine at <10 mg/kg, iv administered every 4 hrs and measured after 26 hrs; assay type: functional, organism-based

Structure (SMILES): CC[C@H](C)[C@@H](NC(=O)[C@@H](NC(=O)[C@H](CCC(=O)O)NC(=O)[C@H](Cc1ccccc1)NC(=O)[C@@H](CCN)NC(=O)[C@H](CCN)NC(=O)[C@H](CO)NC(=O)[C@@H](Cc1c[nH]c2ccccc12)NC(=O)[C@@H](CO)NC(=O)CNC(=O)[C@@H](CCN)NC(=O)[C@H](NC(=O)[C@H](C)N)C(C)C)C(C)C)C(=O)N[C@@H](C)C(=O)O
- MIC (Escherichia coli [1]): 4 µg/mL (≈ 2.73 µM)
- IC50 at 40 h [2]: > 170 µg/mL
- MIC (Escherichia coli [3]): 2 µg/mL
- MIC (Klebsiella pneumoniae [4]): 1 µg/mL
- logD [5]: 1.36
- solubility [6]: > 1000 µg/mL
- Stability [7]: Stable
- Stability [8]: Stable
- Activity [9]: Non-Toxic
- Activity (Cytochrome P450 1A2 [10]): Not Active
- inhibition (INH) (Cytochrome P450 1A2 [11]): Not Active
- microsomal CLint [12]: 2 µL/min/mg
- Cmax [13]: 166 µg/mL
- Cmax [14]: 152 µg/mL
- Cmax [15]: 5.65 µg/mL
- clearance [16]: 2 mL/min/kg
- Vd [17]: 0.1 L/kg
- MIC (Klebsiella aerogenes): 8 µg/mL (≈ 5.46 µM)
- MIC (Enterobacter cloacae): 2 µg/mL (≈ 1.36 µM)
- MIC (Escherichia coli [18]): 2 µg/mL (≈ 1.36 µM)
- MIC (Morganella morganii): > 32 µg/mL
- MIC (Proteus mirabilis [19]): > 32 µg/mL
- MIC (Proteus mirabilis [20]): > 64 µg/mL
- MIC (Providencia stuartii): > 32 µg/mL
- MIC (Pseudomonas aeruginosa): 32 µg/mL (≈ 21.8 µM)
- MIC50 (Klebsiella pneumoniae [21]): 8 µg/mL (≈ 5.46 µM)
- MIC90 (Klebsiella pneumoniae [21]): 32 µg/mL (≈ 21.8 µM)
- Activity (Escherichia coli [22]): Active
- Activity (Escherichia coli [23]): Active
- Activity (Klebsiella pneumoniae [24]): Active
- Activity (Klebsiella pneumoniae [25]): Active
- Kd [26]: 2.6 µM
- Activity (Klebsiella pneumoniae [27]): Active
- Activity (Cell membrane [28]): Active
- Activity (Cell membrane [29]): Active
- Activity [30]: Toxic
- Activity (Klebsiella pneumoniae [31]): Active
- Activity (Klebsiella pneumoniae [32]): Active
- Activity (Klebsiella pneumoniae [33]): inactive

— ChEMBL document CHEMBL5518181, “Studies of antibacterial activity (in vitro and in vivo) and mode of action for des-acyl tridecaptins (DATs)” (Eur J Med Chem, 2024)
